Patent publication US11885796B2, “Assay to identify anti-cancer agents” (LDN Pharma Limited, priority 2017, dated 2024)

Legend:
Type in all cases: cell-based
[1] = system: OPRK1; assay: Level of expression of OPRK1 by immunoblotting in A549 lung cancer cells; conditions: 1 nM to 10 μM, 48 h, immunoblotting (FIG. 1)
Experimental: (§1) In order to determine the effect of 6-β-naltrexol or naltrexone on the level of expression of OPRK1, A549 lung cancer or HCT116 colon cancer cells were seeded onto 6-well plates at a density of 2×10^5 cell/well, and allowed to adhere overnight. Cells were then cultured in the presence of naltrexone or 6-β-naltrexol at concentrations of 1 nM, 10 nM, 100 nM, 1 μM or 10 μM for a further 48 h. Cells were then harvested and processed for measurements of OPRK1, opioid receptor-μ1 (OPRM1) and GAPDH using standard immunoblotting techniques. The effect of 6-β-naltrexol or naltrexone on the level of expression of BAD was investigated by using the same protocol as outlined above. The effect was determined in HCT116 cells using either 10 nM or 10 μM of 6-β-naltrexol or 10 nM or 10 μM naltrexone (FIG. 2).

[2] = system: OPRK1; assay: Level of expression of OPRK1 by immunoblotting in HCT116 colon cancer cells; conditions: 1 nM to 10 μM, 48 h, immunoblotting (FIG. 1)
Experimental: as §1

[3] = system: BAD; assay: Level of expression of BAD by immunoblotting in HCT116 cells; conditions: 48 h (FIG. 2)
Experimental: as §1

[4] = system: A549 and HCT116 cells; assay: Two-phase priming with 6-β-naltrexol then chemotherapy agent; cell number and viability by trypan blue cell counting
Experimental: The impact of combining 6-β-naltrexol with other chemotherapeutic agents was tested by culturing cells according to a treatment schedule that involved two phases of treatment. The first phase involved priming with 10 nM 6-β-naltrexol or 10 μM 6-β-naltrexol for 48 h, before treatment with another drug for a further 48 h. A549 and HCT116 cells were seeded into 6-well plates at a density of 2×10^5 cells/well and left to adhere overnight. Media was removed after 48 h, and cells were rinsed gently with drug-free medium. Fresh culture medium that contained cyclophosphamide (CPM), gemcitabine (GEM) or oxaliplatin (OXP) was then added to the cells. The concentrations of the chemotherapy agents used were approximately ¼ IC50, as established previously (Liu W M, Fowler D W, Smith P, Dalgleish A G. Pre-treatment with chemotherapy can enhance the antigenicity and immunogenicity of tumours by promoting adaptive immune responses. Br J Cancer. 2010 Jan. 5; 102(1):115-23). Cells were then left for a further 48 h before assessment of cell number of viability by cell counting using trypan blue dye as a way of discriminating live and dead cells. Cytostasis was indicated by a reduction in cell number and no associated reduction in cell viability.

| Structure (SMILES) | level of expression of OPRK1 [1] | level of expression of OPRK1 [2] | effect on the level of expression of BAD ([3]; 10 nM) | increase of the level of expression of BAD ([3]; 10 μM) | independent cytotoxicity of the priming agent ([4]; higher dose of 6-β-naltrexol alone (double doses control)) | cytotoxic effect of certain anti-cancer agents after priming ([4]; priming 48 h in an amount sufficient to raise OPRK1 expression by at least 10%, then cyclophosphamide, gemcitabine or oxaliplatin at approximately ¼ IC50 for 48 h) | effect on the level of expression of BAD ([3]; 10 μM) |
| --- | --- | --- | --- | --- | --- | --- | --- |
| Oc1ccc2c3c1OC1[C@H](O)CC[C@@]4(O)[C@@H](C2)N(CC2CC2)CC[C@]314 (stereo partly drawn) [6-β-naltrexol, 17-(Cyclopropylmethyl)-4,5-epoxymorphinan-3,6beta, 14-triol] | increase the level of expression | increases the level of expression | negligible effect | more than 10% | absence of any independent increase in cytotoxicity | increased |  |
| O=C1CC[C@@]2(O)[C@H]3Cc4ccc(O)c5c4[C@@]2(CCN3CC2CC2)[C@H]1O5 [naltrexone] | increase the level of expression | down-regulates the level of expression | negligible effect |  |  |  | negligible effect |
